According to patent EP3470068B1, “ANTIBACTERIAL COMPOSITIONS WITH ENHANCED ACTIVITY” (Università degli Studi di Parma, priority 2017, dated 2019):
Peptide text beside a SMILES is read from it.

Key:
[1] = test system: Escherichia coli ATCC 25922; assay: MIC by serial microdilution in liquid culture; format: cell-based; conditions: E. coli ATCC 25922; phosphate buffer 10 mM with 40% Müller Hinton broth, 24 hours at 37°C
Method: (§1) For each bacterial strain 3-5 morphologically similar colonies from fresh cultures were taken, inoculated in Brain Heart Infusion broth medium and then incubated at 37°C in agitation at 225 r.p.m. for about 3-4 hours. Subsequently, the bacterial suspension was centrifuged at 1000 r.p.m. for 20 minutes and the obtained pellet was resuspended in phosphate buffer 10 mM. Turbidity of the bacterial suspension was measured by evaluating the absorbance using a spectrophotometer at 600 nm. The range 0,08-0,13 equates to a concentration of about 10^8 CFU/ml. The bacterial suspension was diluted 1:100 in phosphate buffer 10 mM, then, within 30 minutes, 50 µl of this bacterial suspension (10^6 CFU/ml) were inoculated in each well of the microtiter plate to obtain a final bacterial concentration of about 5 x 10^5 CFU/ml.
(§2) The different molecules were tested for their ability to inhibit bacterial and fungal growth in broth culture. Single molecules were diluted in phosphate buffer 10 mM with 40% of Müller Hinton broth. 50 µl of diluted molecules were added to microtiter U plate wells with phosphate buffer and 40% of Müeller Hinton broth and a suspension of one of these strains: Escherichia coli ATCC 25922, Pseudomonas aeruginosa ATCC 27853, Staphylococcus aureus ATCC 25923, MRSA ATCC 43300, Candida albicans ATCC 11006 or Malassezia pachydermatis DSMZ 6172.
(§3) For bacterial strains the different molecules were tested at the following concentrations: • NCP-3: from 0,2 µg/ml to 50 µg/ml • Benzalkonium chloride: from 0,00008% to 0,04% • Thimerosal: from 0,0008% to 0,4% • Tris/EDTA: from 0,4%/0,1% to 0,0008%/0,0002%
(§4) Bacterial and fungal growth controls were cultured in absence of antimicrobial molecules. Microtiter plates were incubated 24 or 48 hours (bacterial and fungal strains, respectively) at 37°C and subsequently MIC was determined for each molecule against each strain.

[2] = test system: Pseudomonas aeruginosa ATCC 27853; assay: MIC by serial microdilution in liquid culture; format: cell-based; conditions: P. aeruginosa ATCC 27853; phosphate buffer 10 mM with 40% Müller Hinton broth, 24 hours at 37°C
Method: as §1, §2, §3, §4

[3] = test system: Staphylococcus aureus ATCC 25923; assay: MIC by serial microdilution in liquid culture; format: cell-based; conditions: S. aureus ATCC 25923; phosphate buffer 10 mM with 40% Müller Hinton broth, 24 hours at 37°C
Method: as §1, §2, §3, §4

MRSA ATCC 43300 [4] = assay: MIC by serial microdilution in liquid culture; format: cell-based, Methicillin Resistant Staphylococcus aureus (MRSA); conditions: phosphate buffer 10 mM with 40% Müller Hinton broth, 24 hours at 37°C
Method: as §1
as §2, with “6172. […]” for “6172.”

[5] = test system: Candida albicans ATCC 11006; assay: MIC by serial microdilution in liquid culture; format: cell-based; conditions: C. albicans ATCC 11006; phosphate buffer 10 mM with 40% Müller Hinton broth, 48 hours at 37°C
Method: (§5) For each fungal strain 3-5 morphologically similar colonies were collected from fresh cultures, inoculated in Brain Heart Infusion broth medium and then incubated at 37°C in agitation at 225 r.p.m. for 6-8 hours. Subsequently, the fungal suspension was centrifuged at 1000 r.p.m. for 20 minutes and the obtained pellet was resuspended in phosphate buffer 10 mM and diluted to a turbidity equal to 5 of McFarland standard, corresponding to a concentration of 10^8 CFU/ml. Fungal suspension was diluted 1:100 in phosphate buffer 10 mM, then, within 30 minutes, 50 µl of this bacterial suspension (10^6 CFU/ml) were inoculated in each well of microtiter plate to obtain a final concentration of about 5 x 10^5 CFU/ml.
as §2, with “6172. […]” for “6172.”

[6] = test system: Malassezia pachydermatis DSMZ 6172; assay: MIC by serial microdilution in liquid culture; format: cell-based; conditions: M. pachydermatis DSMZ 6172; phosphate buffer 10 mM with 40% Müller Hinton broth, 48 hours at 37°C
Method: as §5
as §2, with “6172. […]” for “6172.”

[7] = test system: Escherichia coli ATCC 25922; assay: LD90/LD99 by microdilution and agar plating (CFU count); format: cell-based; conditions: E. coli ATCC 25922; two hours contact at 37°C, plated on agar, CFU counted
Method: as §1, with “colonies were collected” for “colonies”, “fresh cultures,” for “fresh cultures were taken,”, “CFU/ml. the” for “CFU/ml. The”
(§6) Different molecules were tested for their ability to inhibit bacterial and fungal growth in broth culture. 50 µl of molecules at the indicated below concentrations were added to microtiter U plate 96 wells with phosphate buffer and a suspension of one of these strains: Escherichia coli ATCC 25922, Pseudomonas aeruginosa ATCC 27853, Staphylococcus aureus ATCC 25923, MRSA ATCC 43300, Candida albicans ATCC 11006 or Malassezia pachydermatis DSMZ 6172.
(§7) The following concentrations of the different molecules were tested: • NCP-3: from 0,2 µg/ml to 50 µg/ml • Benzalkonium chloride: from 0,00008% to 0,04% • Thimerosal: from 0,0008% to 0,4% • Tris/EDTA: from 0,4%/0,1% to 0,0008%/0,0002%
(§8) The bacterial or fungal suspension has been contacted for two hours with the different antimicrobial molecules at 37°C. After incubation, 20 µl of solution were withdrawn from each dilution and plated on agar medium, Columbia with 5% of bovine erythrocytes for bacterial strains and Sabouraud agar for fungal strains. The inoculum was uniformly distributed on agar plates with a sterile disposable handle. After incubation at 37°C for 24 hours for bacterial strains and 48 hours for fungal strains, colonies (CFU) were counted.

[8] = test system: Pseudomonas aeruginosa ATCC 27853; assay: as above; format: cell-based; conditions: P. aeruginosa ATCC 27853; two hours contact at 37°C, plated on agar, CFU counted
Method: as §1, with “colonies were collected” for “colonies”, “fresh cultures,” for “fresh cultures were taken,”, “CFU/ml. the” for “CFU/ml. The”
as §6, §7, §8

[9] = test system: Staphylococcus aureus ATCC 25923; assay: as above; format: cell-based; conditions: S. aureus ATCC 25923; two hours contact at 37°C, plated on agar, CFU counted
Method: as §1, with “colonies were collected” for “colonies”, “fresh cultures,” for “fresh cultures were taken,”, “CFU/ml. the” for “CFU/ml. The”
as §6, §7, §8

MRSA ATCC 43300 [10] = assay: as above; format: cell-based, Methicillin Resistant Staphylococcus aureus (MRSA); conditions: two hours contact at 37°C, plated on agar, CFU counted
Method: as §1, with “colonies were collected” for “colonies”, “fresh cultures,” for “fresh cultures were taken,”, “CFU/ml. the” for “CFU/ml. The”
Different molecules were tested for their ability to inhibit bacterial and fungal growth in broth culture. […]
The bacterial or fungal suspension has been contacted for two hours with the different antimicrobial molecules at 37°C. […] After incubation at 37°C for 24 hours for bacterial strains and 48 hours for fungal strains, colonies (CFU) were counted.

[11] = test system: Candida albicans ATCC 11006; assay: as above; format: cell-based; conditions: C. albicans ATCC 11006; two hours contact at 37°C, plated on Sabouraud agar, CFU counted
Method: as §5, with “The fungal” for “Fungal”
as §6, §7, §8

[12] = test system: Malassezia pachydermatis DSMZ 6172; assay: as above; format: cell-based; conditions: M. pachydermatis DSMZ 6172; two hours contact at 37°C, plated on Sabouraud agar, CFU counted
Method: as §5, with “The fungal” for “Fungal”
as §6, §7, §8

Gram negative = assay: MIC by serial microdilution; format: cell-based; conditions: used alone
Method: as §1
as §2, with “6172. […]” for “6172.”

Gram positive bacteria = assay: MIC by serial microdilution; format: cell-based; conditions: used alone
Method: as §1
as §2, with “6172. […]” for “6172.”

In the case of `CC[C@H](C)[C@H](NC(=O)[C@H](CCCCN)NC(=O)[C@H](Cc1ccc(O)cc1)NC(=O)[C@H](Cc1ccccc1)NC(=O)[C@H](CC(C)C)NC(=O)[C@H](CC(N)=O)NC(=O)[C@H](CCCCN)NC(=O)[C@@H](NC(=O)[C@H](C)NC(=O)[C@@H]1CCCN1C(=O)[C@@H](NC(=O)[C@@H](NC(=O)[C@H](CCCCN)NC(=O)[C@H](CO)NC(=O)[C@H](CC(C)C)NC(=O)[C@@H](NC(=O)[C@H](Cc1c[nH]c2ccccc12)NC(=O)[C@@H](NC(=O)[C@H](CC(C)C)NC(=O)[C@@H](N)CCCCN)[C@@H](C)CC)[C@@H](C)CC)[C@@H](C)O)[C@@H](C)CC)[C@@H](C)CC)C(=O)O` [NCP-3] (H-KLIWILSKTIPAIKNLFYKI-OH), the MIC [1] was 6,3 µg/ml, the MIC [2] was 6,3 µg/ml and the MIC [3] was 3,1 µg/ml. For the same compound, the MIC (MRSA ATCC 43300 [4]) was 6,3 µg/ml, the MIC [5] was 12,5 µg/ml and the MIC [6] was 3,1 µg/ml. The LD90 [7] was 6,3 µg/ml, the LD99 [7] was 12,5 µg/ml and the LD90 [8] was 6,3 µg/ml. The LD99 [8] was 12,5 µg/ml, the LD90 [9] was >1,6 µg/ml and the LD99 [9] was 6,3 µg/ml. For the same compound, the LD90 (MRSA ATCC 43300 [10]) was 6,3 µg/ml, the LD99 (MRSA ATCC 43300 [10]) was 12,5 µg/ml and the LD90 [11] was >6,3 µg/ml. For the same compound, the LD99 [11] was 12,5 µg/ml, the LD90 [12] was >1,6 µg/ml and the LD99 [12] was 3,2 µg/ml. The MIC (Gram negative) was 6,3 µg/ml and the MIC (Gram positive bacteria) was 3,2 µg/ml.
